Experimental data published in US20200377496A1, “INDOLE AND BENZIMIDAZOLE DERIVATIVES AS DUAL 5-HT2A and 5-HT6 RECEPTOR ANTAGONISTS” (ADAMED PHARMA, S.A., priority 2018, published 2020).
Like-named read-outs stand apart in the source and are kept apart here.

Key:
human GPCR 5-HT6 = human GPCR 5-HT6 (Homo sapiens, UniProt P50406); experiment: Cellular aequorin-based functional assay, 5-HT6; type: cell-based; settings: for 5-HT6 AGO EC50 [nM]: agonist mode, CHO-K1 aequorin cells; for Kb: antagonist mode, reference agonist serotonin 40 nM (EC80), read-out: 5-HT6 ANT Kb
Chain of human GPCR 5-HT6 (P50406 whole entry): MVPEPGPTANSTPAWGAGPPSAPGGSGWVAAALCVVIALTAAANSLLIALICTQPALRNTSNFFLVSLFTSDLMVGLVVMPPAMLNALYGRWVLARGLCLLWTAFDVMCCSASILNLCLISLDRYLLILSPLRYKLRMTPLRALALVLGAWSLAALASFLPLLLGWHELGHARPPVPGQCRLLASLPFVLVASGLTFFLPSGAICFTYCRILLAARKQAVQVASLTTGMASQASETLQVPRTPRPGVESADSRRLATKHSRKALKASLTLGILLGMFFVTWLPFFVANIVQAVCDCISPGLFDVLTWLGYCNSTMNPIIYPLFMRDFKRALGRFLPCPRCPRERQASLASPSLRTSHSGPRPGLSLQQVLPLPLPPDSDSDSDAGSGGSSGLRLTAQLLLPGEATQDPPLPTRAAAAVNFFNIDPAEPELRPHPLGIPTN
Experimental: (§1) Preparation of Solutions of Test and Reference Compounds.
(§2) 1 mM stock solutions of the tested compounds were prepared in DMSO. Serial dilutions were prepared in 96-well microplate in assay buffers using automated pipetting system epMotion 5070 (Eppendorf). Two independent experiments in duplicates were performed and 6 to 10 concentrations were tested.
(§3) 5-HT2A and 5-HT6 Functional Activity Assays.
(§4) Cellular aequorin-based functional assays were performed with γ-irradiated recombinant CHO-K1 cells expressing mitochondrially-targeted Aequorin, human GPCR (5-HT2A or 5-HT6) and the promiscuous G protein α16 (PerkinElemer). Assays were performed according to the standard protocol provided by the manufacturer. After thawing, cells were transferred to assay buffer (DMEM/HAM's F12 with 0.1% protease-free BSA) and centrifuged. Cell pellet was resuspended in assay buffer and coelenterazine h was added at final concentrations of 5 μM. Cell suspension was incubated at 21° C., protected from light with constant agitation, for 4 hours and then diluted with assay buffer to a concentration of 250,000 cells/ml. After 1 hour incubation 50 yl cell suspension was dispensed using automatic injectors built in radiometric and luminescence plate counter MicroBeta2 LumiJET (PerkinElmer, USA) into white opaque 96-well microplate preloaded with tested compounds. Immediate light emission generated following calcium mobilization was recorded for 30-60 seconds. In antagonist mode, after 15-30 minutes incubation reference agonist was added to the above assay mix and light emission was recorded again. Final concentration of reference agonist was equal EC80: serotonin 40 nM for 5-HT6 receptor and α-methylserotonin 30 nM for 5-HT2A receptor. The assays were performed in the agonist mode (5-HT6 AGO and 5-HT2A AGO) as well as antagonist mode (5-HT6 ANT and 5-HT2A ANT).
(§5) IC50 and EC50 were determined by non-linear regression analysis using GraphPad Prism 6.0 software. The log IC50 was used to obtain the Kb by applying the Cheng-Prusoff approximation.

human GPCR 5-HT2A = human GPCR 5-HT2A (Homo sapiens, UniProt P28223); experiment: Cellular aequorin-based functional assay, 5-HT2A; type: cell-based; settings: for 5-HT2A AGO EC50 [nM]: agonist mode, CHO-K1 aequorin cells
Chain of human GPCR 5-HT2A (P28223 whole entry): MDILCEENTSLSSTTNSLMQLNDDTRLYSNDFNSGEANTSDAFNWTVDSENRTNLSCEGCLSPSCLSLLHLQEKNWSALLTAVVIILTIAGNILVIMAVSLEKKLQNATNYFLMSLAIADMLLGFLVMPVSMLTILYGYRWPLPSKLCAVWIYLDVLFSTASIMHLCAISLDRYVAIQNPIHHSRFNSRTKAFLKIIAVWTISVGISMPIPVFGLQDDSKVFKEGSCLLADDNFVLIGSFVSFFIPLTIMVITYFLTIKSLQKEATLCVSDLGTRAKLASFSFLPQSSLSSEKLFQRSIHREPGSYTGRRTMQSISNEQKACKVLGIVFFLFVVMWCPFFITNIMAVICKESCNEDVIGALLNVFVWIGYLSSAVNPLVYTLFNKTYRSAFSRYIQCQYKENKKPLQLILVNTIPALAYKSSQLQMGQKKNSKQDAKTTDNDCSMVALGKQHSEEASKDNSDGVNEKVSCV
Experimental: as §1, §2, §3, §4, §5

[1] = system: head twitches induced by 5-HT2A/C receptor agonist DOI; experiment: DOI-induced head twitches in Wistar rats; type: in vivo; settings: hydrochloride salt p.o. 180 min before observation; DOI 2.5 mg/kg i.p.; male Wistar rats
Experimental: Biological Example 3. Effects of Compounds 1 and 17, on Head Twitches Induced by a 5-HT2A/C receptor agonist, 1-(2,5-dimethoxy-4-Iodophenyl)-2-aminopropane hydrochloride (DOI) in Wistar Rats
Drug-naive male Wistar rats (Charles River, Sulzfeld, Germany) were used. Rats were housed four per standard plastic cage and kept in a room with constant environmental conditions (22±1° C., relative humidity 60%, a 12:12 light-dark cycle with lights on at 07:00 a.m.). Animals were supplied by the breeder 2 weeks before the onset of behavioral procedures. During this time, the subjects were weighted and handled several times. The rats were also habituated to p.o. administration of tested compounds in form of hydrochloride salt by gavage dosing of distilled water (1-2 mL). Tap water and standard lab chow (Labofeed H, WPIK, Kcynia, Poland) was available ad libitum.
All tests were carried out in a sound-attenuated experimental room between 10:00 a.m. and 04:00 p.m. DOI-induced head twitches were scored as described by Millan et al. (2000). Rats were injected with DOI (2.5 mg/kg, i.p.) and placed in glass observation cages (25×25×40 cm, W×H×L) with wood chip bedding on the floor. Five minutes later, head twitches were counted for 5 min. (300 s) by a trained observer. […]
Total numbers of head twitches (n/5 min.) were analyzed with the aid of the Kruskal-Wallis analysis of variance (ANOVA). […]

Row | SMILES | 5-HT6 AGO EC50 [nM] (human GPCR 5-HT6) | Kb (human GPCR 5-HT6) [nM] | 5-HT2A AGO EC50 [nM] (human GPCR 5-HT2A) | Kb (human GPCR 5-HT2A; antagonist mode, reference agonist α-methylserotonin 30 nM (EC80), read-out: 5-HT2A ANT Kb) [nM] | minimum effective dose (MED), attenuation of DOI-induced head twitches [1] [mg/kg] | Kb (human GPCR 5-HT2A) [nM]
1 | FC(F)(F)c1nc2c(N3CCNCC3)cccc2n1Cc1ccccc1 [Compound 1, 1-benzyl-4-(piperazin-1-yl)-2-(trifluoromethyl)-1H-benzimidazole] | N.C. | 2.5 | N.C. | 18 | 3.0 | 
2 | FC(F)(F)c1cc2c(N3CCNCC3)cccc2n1Cc1ccco1 [Compound 17, 1-(furan-2-ylmethyl)-4-(piperazin-1-yl)-2-(trifluoromethyl)-1H-indole] | N.C. | 0.47 | N.C. |  | 1.0 | 10
